According to article PMC10817170, “Effect of an NHE3 inhibitor in combination with an NPT2b inhibitor on gastrointestinal phosphate absorption in Rodent models” (PLOS ONE, 2024):

Tests used:
Human Pit-2 = molecular target: T1, Human Pit-2 (Homo sapiens, UniProt Q08357); test: Pit-2 activity assay (33P phosphate uptake in CHO cells); type: cell-based; conditions: n=1
T1 construct: expressed in transfected cells; host or cells: CHO cells, constitutive expression
T1 sequence (Q08357 1-652): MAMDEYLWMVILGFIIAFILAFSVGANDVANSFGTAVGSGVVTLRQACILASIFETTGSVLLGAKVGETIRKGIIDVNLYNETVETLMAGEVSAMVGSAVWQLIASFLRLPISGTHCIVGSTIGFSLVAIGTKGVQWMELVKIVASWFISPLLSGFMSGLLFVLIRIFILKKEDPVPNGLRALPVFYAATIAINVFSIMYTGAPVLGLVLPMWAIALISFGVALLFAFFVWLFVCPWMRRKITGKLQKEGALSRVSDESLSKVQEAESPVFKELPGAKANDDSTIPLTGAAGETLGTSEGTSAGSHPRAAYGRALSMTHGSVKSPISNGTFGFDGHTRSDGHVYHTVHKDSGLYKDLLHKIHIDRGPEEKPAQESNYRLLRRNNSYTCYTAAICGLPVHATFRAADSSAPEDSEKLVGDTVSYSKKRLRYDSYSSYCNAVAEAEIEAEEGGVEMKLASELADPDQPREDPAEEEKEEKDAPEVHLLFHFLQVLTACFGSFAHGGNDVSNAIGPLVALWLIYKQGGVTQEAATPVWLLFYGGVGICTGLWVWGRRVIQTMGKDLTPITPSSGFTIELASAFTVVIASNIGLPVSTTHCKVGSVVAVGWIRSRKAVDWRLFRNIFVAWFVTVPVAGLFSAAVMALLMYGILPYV
Description: (§1) Generation of constitutive human Pit-2 and SGLT1 overexpressing CHO cells and activity assays measuring the uptake of ^33P phosphate for 45 minutes at 20°C for Pit-2 and ^14C-α-methyl-D-glucopyranoside for 120 minutes at 37°C for SGLT1, were also described previously.

Human SGLT1 = molecular target: T2, Human SGLT1 (Homo sapiens, UniProt P13866); test: SGLT1 activity assay (14C-alpha-methyl-D-glucopyranoside uptake in CHO cells); type: cell-based; conditions: geometric mean, n=4
T2 construct: expressed in transfected cells; host or cells: CHO cells, constitutive expression
T2 sequence (P13866 1-664): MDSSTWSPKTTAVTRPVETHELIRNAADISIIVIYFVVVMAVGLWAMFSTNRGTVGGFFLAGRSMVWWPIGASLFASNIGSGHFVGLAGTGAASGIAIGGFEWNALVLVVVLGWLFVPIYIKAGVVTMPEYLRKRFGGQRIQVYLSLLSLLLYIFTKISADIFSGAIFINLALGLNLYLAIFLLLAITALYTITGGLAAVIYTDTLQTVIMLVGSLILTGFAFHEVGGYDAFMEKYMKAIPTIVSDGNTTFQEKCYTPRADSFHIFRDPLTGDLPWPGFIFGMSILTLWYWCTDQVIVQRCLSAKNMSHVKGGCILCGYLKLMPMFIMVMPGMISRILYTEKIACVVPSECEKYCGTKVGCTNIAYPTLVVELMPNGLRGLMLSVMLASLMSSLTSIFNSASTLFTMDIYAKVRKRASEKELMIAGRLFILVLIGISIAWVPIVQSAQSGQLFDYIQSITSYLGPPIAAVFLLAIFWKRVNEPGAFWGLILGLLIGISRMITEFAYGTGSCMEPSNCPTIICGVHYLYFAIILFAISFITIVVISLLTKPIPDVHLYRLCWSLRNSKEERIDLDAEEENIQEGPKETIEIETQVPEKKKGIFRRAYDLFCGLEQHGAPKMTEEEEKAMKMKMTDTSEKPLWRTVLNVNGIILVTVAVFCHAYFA
Description: as §1

[1] = tested on: acute phosphate uptake into plasma; test: Acute phosphate uptake in rats, LY3304000 with fixed 1.2 mg/kg LY3358966; type: in vivo
Description: NHE3 inhibitor LY3304000 and NPT2b inhibitor LY3358966 SDD were used in combination to assess their effect on phosphate absorption in rats. To make the LY3358966 dosing solution, an appropriate amount of LY3358966 SDD was weighed for a 1.2 mg/kg API dosing solution with 10 mL/kg dosing volume and dissolved in water. To make the LY3304000 dosing solution, an appropriate amount of LY3304000 was weighed for a 10 mg/kg dose with 10 mL/kg dosing volume and dissolved in 1% HEC vehicle. The subsequent dosing solutions for 3, 1, 0.3, 0.1, 0.03, 0.01, 0.003, and 0.001 mg/kg LY3304000 were prepared by serial dilutions with 1% HEC. Following 12-hour fasting, male SD rats were orally dosed at 10 mL/kg with 1% HEC vehicle, 1.2 mg/kg LY3358966 or increasing doses of LY3304000 with a fixed, 1.2 mg/kg dose of LY3358966. In the vehicle group, the animals were dosed first with 1% HEC immediately followed by water. In the LY3358966 alone group, the animals were first dosed with 1% HEC immediately followed by LY3358966. In the combination groups, the animals were dosed first with LY3304000 immediately followed by LY3358966. Fifteen minutes later, 2 mL Radiolabeled Phosphate Dosing Solution was orally dosed. Fifteen minutes later, blood was collected by cardiac stick, and plasma was prepared. Radioactivity (dpm) in 50-μL plasma was measured by scintillation counting. To measure the total radioactivity dosed to each rat, the radioactivity in two 10-μL samples of the Radiolabeled Phosphate Dosing Solutions was measured by scintillation counting. The mole amount of phosphate uptake was calculated as described above to determine acute phosphate uptake.

IC50 (Human Pit-2): > 100 µM | IC50 (Human SGLT1): 6.6 µM
SMILES: CN1Cc2c(Cl)cc(Cl)cc2[C@H](c2cccc(S(=O)(=O)NCCOCCOCCN/C(=N\C(N)=O)NCCCCN/C(=N/C(N)=O)NCCOCCOCCNS(=O)(=O)c3cccc([C@@H]4CN(C)Cc5c(Cl)cc(Cl)cc54)c3)c2)C1.Cl.Cl [LY3304000, (Z)-[[4-[[(Z)-N’-carbamoyl-N-[2-[2-[2-[[3-[(4S)-6,8-dichloro-2-methyl-3,4-dihydro-1H-isoquinolin-4-yl]phenyl]sulfonylamino]ethoxy]ethoxy]ethyl]carbamimidoyl]amino]butylamino]-[2-[2-[2-[[3-[(4S)-6,8-dichloro-2-methyl-3,4-dihydro-1H-isoquinolin-4-yl]phenyl]sulfonylamino]ethoxy]ethoxy]ethylamino]methylene]urea dihydrochloride]
acute phosphate uptake, % of vehicle control ([1]; highest dose of LY3304000 plus 1.2 mg/kg LY3358966): 30% | acute phosphate uptake into plasma ([1]; highest dose of LY3304000 tested plus 1.2 mg/kg LY3358966, vehicle 710 nmoles): 212 nmol
